Here are results for 7 compounds from publication PMC12481029, “Design, synthesis, antiproliferative assessments, and computational studies of new quinolin-2(1H)-ones as dual EGFR/HER-2 inhibitors” (Frontiers in Chemistry, 2025).

Where “and” joins values, the source holds several entries; their conditions need not be identical. Identical values can stand only once. A value given as a limit tells only on which side of the number the result lay.

The subject of data set [1] is four human cancer cell lines (A-549, MCF-7, Panc-1, HT-29). Put plainly: Antiproliferative assay, average over four cancer cell lines. It is filed as cell-based. To be noted: for GI50: Homo sapiens, average IC50 over the four cancer cell lines; for Potency reduction (fold) compared to 3d (GI50): ratio to 3d GI50 = 41 nM.
In a further data set the target is EGFR (Homo sapiens, UniProt P00533). As to the kind of experiment: EGFR inhibitory assay (EGFR-TK test). To be noted: for IC50: EGFR inhibition IC50 ± SEM; for Fold less effective than erlotinib, EGFR inhibition: ratio to erlotinib IC50.
EGFR, sequence (P00533 669-1210): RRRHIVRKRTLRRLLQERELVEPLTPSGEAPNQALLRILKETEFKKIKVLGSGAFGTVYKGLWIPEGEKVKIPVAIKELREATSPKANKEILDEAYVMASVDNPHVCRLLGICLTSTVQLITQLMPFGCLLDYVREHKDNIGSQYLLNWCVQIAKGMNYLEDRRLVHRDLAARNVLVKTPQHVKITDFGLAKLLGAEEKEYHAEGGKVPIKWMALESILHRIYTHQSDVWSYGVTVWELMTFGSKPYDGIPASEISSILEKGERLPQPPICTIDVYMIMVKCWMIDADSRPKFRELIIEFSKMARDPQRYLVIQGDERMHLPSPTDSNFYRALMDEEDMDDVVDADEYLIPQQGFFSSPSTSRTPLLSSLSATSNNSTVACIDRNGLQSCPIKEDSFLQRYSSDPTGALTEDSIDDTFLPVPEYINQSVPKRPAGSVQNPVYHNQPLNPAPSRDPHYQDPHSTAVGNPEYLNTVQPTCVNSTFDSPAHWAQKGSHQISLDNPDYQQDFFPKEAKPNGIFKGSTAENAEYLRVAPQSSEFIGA
Data set [2] relates to breast (MCF-7) cancer cell line. As to the kind of experiment: Antiproliferative assay, MCF-7. It is filed as cell-based. To be noted: Homo sapiens, MCF7; read-out: Antiproliferative activity IC50 ± SEM, MCF-7. The source says:
(§1) The MTT assay ([Al-Wahaibi et al., 2022]; [Mahmoud et al., 2023]) was employed to assess the antiproliferative effects of compounds 3a-h and 5a-g on four human cancer cell lines: colon (HT-29) cancer, pancreatic (Panc-1) cancer, lung (A-549) cancer, and breast (MCF-7) cancer cell lines. Erlotinib was applied as a reference. Table 1 presents the median inhibitory concentration (IC50) and average IC50 (GI50) values for each compound evaluated on the four cancer cell lines.
(§2) Compounds 3a-h and 5a-g were tested for their antiproliferative activities on four human cancer cell lines: colon (HT-29), pancreatic (Panc-1), lung (A-549), and breast (MCF-7) using the MTT assay ([Al-Wahaibi et al., 2022]; [Mahmoud et al., 2023]). Erlotinib was applied as a reference.
(§3) To explore the antiproliferative potential of compounds propidium iodide fluorescence assay was performed using different cell lines such as Panc-1 (pancreas cancer cell line), MCF-7 (breast cancer cell line), HT-29 (colon cancer cell line) and A-549 (epithelial cancer cell line), respectively. To calculate the total nuclear DNA, a fluorescent dye (propidium iodide, PI) is used which can attach to the DNA, thus offering a quick and precise technique. PI cannot pass through the cell membrane and its signal intensity can be considered as directly proportional to quantity of cellular DNA. Cells whose cell membranes are damaged or have changed permeability are counted as dead ones. The assay was performed by seeding the cells of different cell lines at a density of 3000-7500 cells/well (in 200μl medium) in culture plates followed by incubation for 24h at 37 °C in humidified 5%CO2/95% air atmospheric conditions. The medium was removed; the compounds were added to the plates at 10 μM concentrations (in 0.1% DMSO) in triplicates, followed by incubation for 48h. DMSO (0.1%) was used as control. After incubation, medium was removed followed by the addition of PI (25 μl, 50μg/mL in water/medium) to each well of the plates. At -80 °C, the plates were allowed to freeze for 24 h, followed by thawing at 25 °C. A fluorometer (Polar-Star BMG Tech) was used to record the readings at excitation and emission wavelengths of 530 and 620 nm for each well. The percentage cytotoxicity of compounds was calculated using the following formula: […]

The target of the next data set is HER-2 (Homo sapiens, UniProt P04626). As to the kind of experiment: HER-2 inhibitory assay (ADP-Glo kinase assay). (In general: In ADP-Glo the light output rises with the ADP produced.)
HER-2, sequence (P04626 676-1255 limits assumed): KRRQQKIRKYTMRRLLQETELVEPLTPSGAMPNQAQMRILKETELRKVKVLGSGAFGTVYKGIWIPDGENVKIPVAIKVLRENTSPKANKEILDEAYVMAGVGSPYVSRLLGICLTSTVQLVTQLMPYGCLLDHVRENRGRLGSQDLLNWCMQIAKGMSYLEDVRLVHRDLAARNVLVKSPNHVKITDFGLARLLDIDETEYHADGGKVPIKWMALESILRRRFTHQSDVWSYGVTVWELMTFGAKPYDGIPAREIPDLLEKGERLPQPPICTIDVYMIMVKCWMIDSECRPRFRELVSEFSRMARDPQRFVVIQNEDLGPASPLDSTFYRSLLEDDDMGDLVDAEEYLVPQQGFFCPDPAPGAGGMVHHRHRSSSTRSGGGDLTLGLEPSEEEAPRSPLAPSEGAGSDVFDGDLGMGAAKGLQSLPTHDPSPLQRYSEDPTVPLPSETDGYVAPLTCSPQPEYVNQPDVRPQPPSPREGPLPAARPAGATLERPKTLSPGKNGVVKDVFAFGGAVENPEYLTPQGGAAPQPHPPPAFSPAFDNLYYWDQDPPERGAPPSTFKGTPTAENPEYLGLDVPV
Data set [3] has as its system pancreatic (Panc-1) cancer cell line. As to the kind of experiment: Antiproliferative assay, Panc-1. It is filed as cell-based. To be noted: Homo sapiens, read-out: Antiproliferative activity IC50 ± SEM, Panc-1.
Excerpt: as §1, §2, §3

Data set [4] concerns colon (HT-29) cancer cell line. Put plainly: Antiproliferative assay, HT-29. The format is cell-based. The conditions noted are these: Homo sapiens, read-out: Antiproliferative activity IC50 ± SEM, HT-29.
In data set [5] the test system is lung (A-549) cancer cell line. As to the kind of experiment: Antiproliferative assay, A-549. The format is cell-based. The conditions noted are these: Homo sapiens, A549; read-out: Antiproliferative activity IC50 ± SEM, A-549.
Excerpt: as §1, §2, §3

The nature of data set [6]: Cell viability assay (MTT), normal mammary cells. The conditions noted are these: human, MCF-10A normal mammary epithelial cells.
Description: MTT assay was performed to investigate the effect of the synthesized compounds on mammary epithelial cells (MCF-10A). The cells were propagated in medium consisting of Ham's F-12 medium/ Dulbecco's modified Eagle's medium (DMEM) (1:1) supplemented with 10% foetal calf serum, 2 mM glutamine, insulin (10 μg/mL), hydrocortisone (500 ng/mL) and epidermal growth factor (20 ng/mL). Trypsin ethylenediamine tetra acetic acid (EDTA) was used to passage the cells after every 2-3 days. 96-well flat-bottomed cell culture plates were used to seed the cells at a density of 10^4 cells mL^-1. The medium was aspirated from all the wells of culture plates after 24 h followed by the addition of synthesized compounds (in 200 μL medium to yield a final concentration of 0.1% (v/v) dimethyl sulfoxide) into individual wells of the plates. Four wells were designated to a single compound. The plates were allowed to incubate at 37°C for 96 h. Afterwards, the medium was aspirated and 3-[4,5-dimethylthiazol-2-yl]-2,5-diphenyltetrazolium bromide (MTT) (0.4 mg/mL) in medium was added to each well and subsequently incubated for 3 h. The medium was aspirated and 150 μL dimethyl sulfoxide (DMSO) was added to each well. The plates were vortexed followed by the measurement of absorbance at 540 nm on a microplate reader.

Description for EGFR: 5ʹ upstream to the EGFR sequence comprised a sequence that encoded (His)6. Sf-9 cells were infected for 72h for protein expression. The pellets of Sf-9 cells were solubilized in a buffer containing sodium vanadate (100 μM), aprotinin (10 μg/mL), triton (1%), HEPES buffer(50mM), ammonium molybdate (10 μM), benzamidine HCl (16 μg/mL), NaCl (10 mM),leupeptin (10 μg/mL) and pepstatin (10 μg/mL) at 0°C for 20 min at pH 7.4, followed by centrifugation for 20 min. To eliminate the nonspecifically bound material, a Ni-NTA super flow packed column was used to pass through and wash the crude extract supernatant first with 10mM and then with 100 mM imidazole. Histidine-linked proteins were first eluted with 250 and then with 500 mM imidazole subsequent to dialysis against NaCl (50 mM), HEPES (20 mM), glycerol (10%) and 1 μg/mL each of aprotinin, leupeptin and pepstatin for 120 min. The purification was performed either at 4 °C or on ice. To record autophosphorylation level, EGFR kinase assay was carried out on the basis of DELFIA/Time-Resolved Fluorometry. […] Each compound (10 μL) was incubated with recombinant enzyme (10 μL, 5 ng for EGFR, 1:80 dilution in 100 mM HEPES) for 10 min at 25 °C, subsequent to the addition of 5X buffer (10 μL, containing 2 mM MnCl2, 100 μM Na3VO4, 20 mM HEPES and 1 mM DTT) and ATP-MgCl2 (20 μL, containing 0.1 mM ATP and 50 mM MgCl2) and incubation for 1h. The negative and positive controls were included in each plate by the incubation of enzyme either with or without ATP-MgCl2. The liquid was removed after incubation and the plates were washed thrice using a wash buffer. The Europium-tagged antiphosphotyrosine antibody (75 μL, 400 ng) was added to each well followed by incubation of 1h and then washing of the plates using buffer. […] The autophosphorylation percentage inhibition by compounds was calculated using the following equation:
The majority of signals detected by antiphosphotyrosine antibody were from EGFR because the enzyme preparation contained low impurities.
Description for HER-2: The ADP-Glo™ Kinase Assay was used for kinase activity detection, related kinases information: HER-2 (ab60866, Abcam), with a concentration of 100 ng/mL. Target compounds were dissolved in DMSO to obtain drug solutions with different concentrations, and the compound concentrations in the final reaction system (100 μL) were 1 nM, 20 nM, 40 nM, 80 nM, and 100 nM, respectively. 10μL of the solution containing compounds was transferred to a 96-well plate, then added 40 μL of 1 × kinase buffer (50 mM HEPES, pH 7.5) to each well, and mixed the mixture in the 96-well plate on a shaker for 10 min. Next, added 25 μL of ADP-Glo™ reagent to the above wells, mixed and incubated for another 40 min. Distributed 10 μL kinase detection reagent to the reaction and incubated for 30 min. Finally, the full-wavelength microplate reader was used to record the OD value.

As a reminder, the GI50 is the concentration that inhibits growth by half. Low values mean more potent growth inhibition, high ones less potent growth inhibition. A word on the IC50: it is the point on the concentration scale where inhibition reaches its midpoint. By viability is commonly meant a read-out of living cells in per cent, often relative to untreated cells. Low readings indicate a greater loss of cells, high ones better survival. For `Cc1ccc(S(=O)(=O)N/N=C/c2c(O)c3cc(Cl)ccc3[nH]c2=O)cc1` [Compound 3f, (E)-N'-((6-chloro-4-hydroxy-2-oxo-1,2-dihydroquinolin-3-yl)methylene)-4-methyl benzenesulfonohydrazide], the GI50 in data set [1] was found to be 46 nM. Also, the IC50 at EGFR is 99 nM and 95 nM; in data set [2], 43 ± 4 nM; on HER-2, 44 ± 3 nM; in data set [3], 46 ± 4 nM; in data set [4] it was 48 ± 4 nM; in data set [5] it was 46 ± 4 nM. Further, the “Fold less effective than erlotinib, EGFR inhibition” value at EGFR turned out to be 1.2. The compound also yielded a viability at 4 days, 50 µM in data set [6] of 90%.
In turn, `Cc1ccc(S(=O)(=O)N/N=C/c2c(O)c3cc(C)ccc3[nH]c2=O)cc1` [Compound 3c, (E)-N'-((4-hydroxy-6-methyl-2-oxo-1,2-dihydroquinolin-3-yl)methylene)-4-methylbenzenesulfonohydrazide] yielded a 50% growth inhibitory concentration (GI50) in data set [1] of 51 nM. The “Potency reduction (fold) compared to 3d (GI50)” value (“Potency reduction (fold)” for short) in data set [1] is 1.3. Further, the IC50 was 95 nM and 99 nM against EGFR; 48 ± 4 nM in data set [2]; 49 ± 3 nM at HER-2; 53 ± 5 nM in data set [3]; 52 ± 4 nM in data set [4]; 50 ± 5 nM in data set [5]. In addition, the “Fold less effective than erlotinib, EGFR inhibition” value at EGFR is listed as 1.2. This compound registered a viability at 4 days, 50 µM in data set [6] of 86%.
On to `COc1ccc2[nH]c(=O)c(/C=N/NS(=O)(=O)c3ccc(C)cc3)c(O)c2c1` [Compound 3b, (E)-N'-((4-hydroxy-6-methoxy-2-oxo-1,2-dihydroquinolin-3-yl)methylene)-4-methyl benzenesulfonohydrazide], for which, in data set [1], the GI50 amounted to 56 nM. Moreover, the “Potency reduction (fold)” value in data set [1] worked out at 1.4. The half-inhibitory concentration (IC50) turned out to be 52 ± 5 nM in data set [2], 56 ± 5 nM in data set [3], 58 ± 5 nM in data set [4] and 56 ± 5 nM in data set [5]. In addition, the viability at 4 days, 50 µM in data set [6] amounted to 92%.
In the case of `CCn1c(=O)c(/C=N/NS(=O)(=O)c2ccc(C)cc2)c(O)c2ccccc21` [Compound 3e, (E)-N'-((1-Ethyl-4-hydroxy-2-oxo-1,2-dihydroquinolin-3-yl)methylene)-4-methyl benzenesulfonohydrazide], in data set [1], halving of growth (GI50) required 63 nM. For the same compound, the IC50 stood at 61 ± 6 nM in data set [2], 64 ± 6 nM in data set [3], 64 ± 6 nM in data set [4] and 62 ± 6 nM in data set [5]. This compound also came in with a viability at 4 days, 50 µM in data set [6] of 89%.
`Cc1ccc(S(=O)(=O)N/N=C/c2c(O)c3cccc(C)c3[nH]c2=O)cc1` [Compound 3h, (E)-N'-((4-hydroxy-8-methyl-2-oxo-1,2-dihydroquinolin-3-yl)methylene)-4-methyl benzenesulfonohydrazide] showed a GI50 in data set [1] of over 100 nM. In addition, the “Potency reduction (fold)” value in data set [1] is “at least 2.3”. The IC50 in data set [2], in data set [3], in data set [4] and in data set [5] was over 100 nM each time. The compound further showed a viability at 4 days, 50 µM in data set [6] of 90%.
The compound `Cc1ccc(S(=O)(=O)N/N=C/c2c(O)c3ccccc3n(C)c2=O)cc1` [Compound 3a, (E)-N'-((4-hydroxy-1-methyl-2-oxo-1,2-dihydroquinolin-3-yl)methylene)-4-methylbenzenesulfonohydrazide] gave a GI50 in data set [1] of 92 nM. Also, in data set [1], the “Potency reduction (fold)” value is recorded as “at least 2.3”. In addition, the half-maximal inhibitory concentration (IC50) came to 89 ± 8 nM in data set [2], 94 ± 9 nM in data set [3], 94 ± 9 nM in data set [4] and 92 ± 9 nM in data set [5]. In data set [6], this compound yielded a viability at 4 days, 50 µM of 90%.
As to `Cc1ccc(S(=O)(=O)N/N=C/c2c(O)c3ccc(C)cc3[nH]c2=O)cc1` [Compound 3g, (E)-N'-((4-hydroxy-7-methyl-2-oxo-1,2-dihydroquinolin-3-yl)methylene)-4-methyl benzenesulfonohydrazide], the concentration for 50% growth inhibition (GI50) in data set [1] is 94 nM. Also, in data set [1], the “Potency reduction (fold)” value was “at least 2.3”. For the same compound, the IC50 in data set [2] is 90 ± 9 nM; in data set [3], 94 ± 9 nM; in data set [4], 96 ± 9 nM; in data set [5] it was 94 ± 9 nM. Besides, in data set [6], the viability at 4 days, 50 µM stood at 87%.
